Experimental data reported in patent US20140235545A1, “The use of HCV immunogenic peptide or a derivative thereof in the prevention or treatment of arthritis” (priority 2011, published 2014).
“Also recorded” adds a separate entry of the source. No end group written: not given here.

System: combined collagen-adjuvant induced arthritis (calf type II collagen in combination with Freund's complete adjuvant)
Assay: Protective effect of peptide A on combined collagen-adjuvant induced arthritis in rats
Type: in vivo, SD rats
Conditions: for ankle joint swelling value: X±SD; for ankle joint swelling value / Lesion scoring ( X ± SD), joint lesion severity: n=10; for inhibition rate of ankle joint swelling: vs model group; for Lesion scoring ( X ± SD), joint lesion severity / state of joint synovial tissue (HE sections): 32nd day; for Lesion scoring ( X ± SD), joint lesion severity: left rear ankle joint histopathology, lower score = milder
From the text: SPF-level SD rats, each weighting 180 g˜220 g, with male and female each in half, provided by Experimental Animal Center of Chinese Academy of Military Medical.
Peptide with the following sequence is used: GQTYTSG (hereinafter referred to as peptide A), which is synthesized by solid phase peptide synthesis method using 413A automatic peptide synthesizer (available from Perkin Elmer Corporation), the detailed synthetic steps is described in Example 1 of PCT/CN2006/001176. The peptide was to be dissolved in physiological saline when used.
SD rats, with male and female each in half, were randomly divided into five groups with 10 rats in each group, respectively are model group (employing physiological saline, calf type II collagen and Freund's complete adjuvant); control group (employing the same volume of physiological saline as the model group); peptide A high, medium and low dose groups (employing calf type II collagen, Freund's complete adjuvant and peptide A, wherein each group is given different doses of peptide A, respectively are 174 μg/kg·d, 87 μg/kg·d and 43.5 μg/kg·d, peptide A is dissolved in physiological saline to form peptide A solution with desired concentration). Peptide A solution in each dose was administered by subcutaneous injection, 0.1 ml of peptide A solution per 100 g body weight of rats. The control group employed the same amount of physiological saline as that of the peptide A solution (0.1 ml of physiological saline per 100 g body weight of rats).
10 mg of calf type II collagen was dissolved into 5 ml 0.1 mol/L of acetic acid solution, and then the resulting solution was placed in a refrigerator at 4° C. overnight, the next day, the solution was mixed with Freund's complete adjuvant in a volume ratio of 1:1, the resulting mixture is sucked and discharged repeatedly by a syringe, until the mixture was emulsified into an emulsion completely. Each group rats were administered according to the following manner. These rats were normally fed every day during the administration.
On the 1st day, except the control group, for rats of other groups (the model group and the peptide A high, medium and low dose groups), 0.5 ml of the emulsion (prepared by calf type II collagen and Freund's complete adjuvant as above) was subcutaneously injected into the base of the tail of every rat, and the injection site is pressed slightly for 30 s so that the emulsion was completely absorbed. On the 8th day, emulsion injection is conducted again in the same way, 0.5 ml for every rat.
From the 2nd day (including this day), the rats of peptide A high, medium and low dose groups each were administered with corresponding dose of peptide A. Then, they were subcutaneously injected with corresponding dose of peptide A for one time every other day, a total of 15 times; at the same time, the rats of the control group and the model group were subcutaneously injected the same amount of physiological saline as that of peptide A for the high, medium and low dose groups every other day, a total of 15 times.
Measurement for the experimental results was conducted as follows. Firstly, before administration to rats of each group, left rear ankle circumference of each rat was measured by a flexible rule as a base value, and then circumference of left rear ankle with inflammation of each rat was measured at the 4th, 8th, 12th, 16th, 20th, 24th, 28th, and 32nd day, respectively. Swelling value obtained by circumference after inflammation minus circumference before inflammation was used to observe changes of primary and secondary inflammation of combined collagen-adjuvant induced rats.
Secondly, at the 32nd day, rats of each group were killed, and their left rear foot ankle joints ware quickly taken out, fixed in 10% formalin and then embedded in paraffin after decalcification, sectioned and stained with HE. […]

[1] = high dose 174 μg/kg·d s.c., the 4th day
[2] = high dose 174 μg/kg·d s.c., the 8th day
[3] = high dose 174 μg/kg·d s.c., the 12th day
[4] = high dose 174 μg/kg·d s.c., the 16th day
[5] = high dose 174 μg/kg·d s.c., the 20th day
[6] = high dose 174 μg/kg·d s.c., the 24th day
[7] = high dose 174 μg/kg·d s.c., the 28th day
[8] = high dose 174 μg/kg·d s.c., the 32nd day
[9] = low dose 43.5 μg/kg·d s.c., the 4th day
[10] = low dose 43.5 μg/kg·d s.c., the 8th day
[11] = low dose 43.5 μg/kg·d s.c., the 12th day
[12] = low dose 43.5 μg/kg·d s.c., the 16th day
[13] = low dose 43.5 μg/kg·d s.c., the 20th day
[14] = low dose 43.5 μg/kg·d s.c., the 24th day
[15] = low dose 43.5 μg/kg·d s.c., the 28th day
[16] = low dose 43.5 μg/kg·d s.c., the 32nd day
[17] = medium dose 87 μg/kg·d s.c., the 4th day
[18] = medium dose 87 μg/kg·d s.c., the 8th day
[19] = medium dose 87 μg/kg·d s.c., the 12th day
[20] = medium dose 87 μg/kg·d s.c., the 16th day
[21] = medium dose 87 μg/kg·d s.c., the 20th day
[22] = medium dose 87 μg/kg·d s.c., the 24th day
[23] = medium dose 87 μg/kg·d s.c., the 28th day
[24] = medium dose 87 μg/kg·d s.c., the 32nd day

Substance: GQTYTSG [Peptide A]
- arthritis lesion (histopathology) after administration (all dose groups, effect in descending order high, medium, low): reduced in different degrees
- ankle joint swelling value [1]: 7.3 ± 1.8 mm
- inhibition rate of ankle joint swelling [1]: (20.6%)
- ankle joint swelling value [2]: 8.2 ± 1.5 mm
- inhibition rate of ankle joint swelling [2]: (34.4%)
- ankle joint swelling value [3]: 9.5 ± 2.1 mm
- inhibition rate of ankle joint swelling [3]: (30.1%)
- ankle joint swelling value [4]: 9.8 ± 1.7 mm
- inhibition rate of ankle joint swelling [4]: (35.5%)
- ankle joint swelling value [5]: 10.2 ± 1.9 mm
- inhibition rate of ankle joint swelling [5]: (41.4%)
- ankle joint swelling value [6]: 10.5 ± 1.9 mm
- inhibition rate of ankle joint swelling [6]: (44.1%)
- ankle joint swelling value [7]: 11.4 ± 1.6 mm
- inhibition rate of ankle joint swelling [7]: (38.7%)
- ankle joint swelling value [8]: 12.0 ± 1.6 mm
- inhibition rate of ankle joint swelling [8]: (30.6%)
- Lesion scoring ( X ± SD), joint lesion severity (high dose group (174 μg/kg·d s.c.)): 3.73 ± 1.57
- inhibition rate to the joint swelling (high dose group (174 μg/kg·d)): ~45%
- state of joint synovial tissue (HE sections) (high dose group, FIGS. 5a and 5b): mild congestion of local synovial tissue of the rats, having no significant surface proliferation
- joint swelling compared with rats of the model group (high, medium and low dose groups, observation): significantly reduced joint swelling
- skin ulcer symptom (high, medium and low dose groups, part of model rats had skin ulcers on the 24th day): did not have skin ulcer symptom
- ankle joint swelling value [9]: 8.8 ± 1.6 mm
- inhibition rate of ankle joint swelling [9]: (4.3%)
- ankle joint swelling value [10]: 10.2 ± 1.7 mm
- inhibition rate of ankle joint swelling [10]: (18.4%)
- ankle joint swelling value [11]: 11.2 ± 1.8 mm
- inhibition rate of ankle joint swelling [11]: (17.6%)
- ankle joint swelling value [12]: 12.3 ± 1.8 mm
- inhibition rate of ankle joint swelling [12]: (19.1%)
- ankle joint swelling value [13]: 13.4 ± 1.7 mm
- inhibition rate of ankle joint swelling [13]: (23.0%)
- ankle joint swelling value [14]: 14.6 ± 1.8 mm
- inhibition rate of ankle joint swelling [14]: (22.3%)
- ankle joint swelling value [15]: 14.8 ± 2.2 mm
- inhibition rate of ankle joint swelling [15]: (20.4%)
- ankle joint swelling value [16]: 14.5 ± 1.8 mm
- inhibition rate of ankle joint swelling [16]: (16.2%)
- Lesion scoring ( X ± SD), joint lesion severity (low dose group (43.5 μg/kg·d s.c.)): 4.36 ± 1.15
- state of joint synovial tissue (HE sections) (low dose group, FIGS. 3a and 3b): mild congestion and significant proliferation and surface projection of the synovial tissue, as well as mild degeneration of covering synovial cells
- ankle joint swelling value [17]: 8.2 ± 1.5 mm
- inhibition rate of ankle joint swelling [17]: (10.9%)
- ankle joint swelling value [18]: 9.3 ± 2.2 mm
- inhibition rate of ankle joint swelling [18]: (25.6%)
- ankle joint swelling value [19]: 9.9 ± 1.8 mm
- inhibition rate of ankle joint swelling [19]: (27.2%)
- ankle joint swelling value [20]: 11.4 ± 1.6 mm
- inhibition rate of ankle joint swelling [20]: (25.0%)
- ankle joint swelling value [21]: 12.2 ± 1.7 mm
- inhibition rate of ankle joint swelling [21]: (29.9%)
- ankle joint swelling value [22]: 12.6 ± 2.1 mm
- inhibition rate of ankle joint swelling [22]: (33.0%)
- ankle joint swelling value [23]: 13.7 ± 1.8 mm
- inhibition rate of ankle joint swelling [23]: (26.3%)
- ankle joint swelling value [24]: 13.9 ± 1.7 mm
- inhibition rate of ankle joint swelling [24]: (19.6%)
- Lesion scoring ( X ± SD), joint lesion severity (medium dose group (87 μg/kg·d s.c.)): 4.12 ± 1.28
- state of joint synovial tissue (HE sections) (medium dose group, FIGS. 4a and 4b): mild congestion of local synovial tissue and infiltration of few inflammatory cells; also recorded: mild congestion, uneven surface and mild proliferation of the synovial tissue
